Measurements reported in patent publication US11365192B2, “Pyridine compound substituted with azole” (TAISHO PHARMACEUTICAL CO., LTD., priority 2017, dated 2022).

Tests used:
Format in all cases: biochemical
human CYP4F2 = human CYP4F2 (Homo sapiens (Human), UniProt P78329); experiment: Inhibition test against 20-HETE producing enzyme CYP4F2 (luciferine derivative, luminescence)
In short: (§1)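 E. coli membranes (100 μg/mL protein) expressing human enzyme, room temperature 60 min, luciferin-derivative luminescence; IC50 from % inhibition. CYP4F2: 50 mM KPO4 pH 7.4, 2.5 μM substrate, 1 mM NADPH. CYP4A11: 100 mM Tris-HCl pH 7.5, 60 μM substrate, NADP+/glucose 6-phosphate/G6PDH regenerating system, 3.3 mM MgCl2.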

human CYP4A11 = human CYP4A11 (Homo sapiens (Human), UniProt Q02928); experiment: Inhibition test against 20-HETE producing enzyme CYP4A11 (luciferine derivative, luminescence)
In short: as §1

[1] = test system: 20-HETE producing enzymes, human kidney microsome; experiment: Inhibition test against 20-HETE producing enzymes using human kidney microsomes (LC-MS/MS); conditions: for inhibitory activities against 20-HETE producing enzymes compared to compound A and compound B: comparison with compound A and compound B of WO03/022821, human kidney microsomes; for IC50: human kidney microsome 250 μg/mL protein, 20 μM arachidonic acid, 37° C. 45 minutes, LC-MS/MS
Description: (1) Inhibition Test for Each Compound of the Present Invention Against 20-HETE Producing Enzymes Using Human Kidney Microsomes
The reaction solution containing each compound [final concentration of 100 mM, KPO4 (pH 7.4), 20 μM Arachidonic acid, 4 mM NADPH] was added to the human kidney microsome (250 μg/mL protein). Following this, the microsome was left to stand at 37° C. for 45 minutes to perform 20-HETE producing reaction. After adding formic acid to stop the reaction, 9 times amount of acetonitrile was added, and deproteinization was carried out by centrifugation (1000 rpm, 4° C., 10 minutes). After that, the peak area value of 20-HETE was measured using a liquid chromatograph-tandem mass spectrometer (LC-MS/MS), and by using that value, the percent inhibition of 20-HETE producing enzyme (%) was calculated according to the equation described below, and the 50% inhibitory concentration (IC50 value) for each compound was calculated. Percent inhibition of 20-HETE producing enzyme (%)=[1−(A−B)/(C−B)]*100
A: Peak area value of 20-HETE/peak area value of internal standard substance with addition of compound
B: Peak area value of 20-HETE/peak area value of internal standard substance without addition of compound and NADPH
C: Peak area value of 20-HETE/peak area value of internal standard substance without addition of compound
(3) Inhibition Test for Compound a and Compound B Disclosed in WO03/022821 Against 20-HETE Producing Enzymes Using Human Kidney Microsomes
For compound A and compound B disclosed in WO03/022821, which have been described above, the 50% inhibitory concentration (IC50 value) against 20-HETE producing enzymes was calculated according to the method described in Test Example 2.
On the other hand, as described above, in Test Example 2, nonradioactive arachidonic acid was used as a substrate for 20-HETE producing reaction, and the amount of 20-HETE produced was measured using LC-MS/MS. In this case, the concentration of arachidonic acid, the substrate, is 20 μM.
In recent years, it is recommended that the substrate concentration for calculating the IC50 value be set at the Km value (Assay Guidance Manual, Sittampalam et. al. (URL: http://www.ncbi.nlm.nih.gov/books/NBK53196/)). According to this, in Test Example 2 described above, human kidney microsomes were used to calculate the Km value, and the calculated Km value of 20 μM was set as the concentration of the substrate, arachidonic acid.

[2] = E. coli membrane fraction expressing human CYP4F2, 2.5 μM luciferine derivative, room temperature 60 minutes
[3] = E. coli membrane fraction expressing human CYP4A11, 60 μM luciferine derivative, room temperature 60 minutes
[4] = human CYP4F2, luciferine derivative, luminescence
[5] = human CYP4A11, luciferine derivative, luminescence

Sequence of human CYP4F2 (P78329 5-520): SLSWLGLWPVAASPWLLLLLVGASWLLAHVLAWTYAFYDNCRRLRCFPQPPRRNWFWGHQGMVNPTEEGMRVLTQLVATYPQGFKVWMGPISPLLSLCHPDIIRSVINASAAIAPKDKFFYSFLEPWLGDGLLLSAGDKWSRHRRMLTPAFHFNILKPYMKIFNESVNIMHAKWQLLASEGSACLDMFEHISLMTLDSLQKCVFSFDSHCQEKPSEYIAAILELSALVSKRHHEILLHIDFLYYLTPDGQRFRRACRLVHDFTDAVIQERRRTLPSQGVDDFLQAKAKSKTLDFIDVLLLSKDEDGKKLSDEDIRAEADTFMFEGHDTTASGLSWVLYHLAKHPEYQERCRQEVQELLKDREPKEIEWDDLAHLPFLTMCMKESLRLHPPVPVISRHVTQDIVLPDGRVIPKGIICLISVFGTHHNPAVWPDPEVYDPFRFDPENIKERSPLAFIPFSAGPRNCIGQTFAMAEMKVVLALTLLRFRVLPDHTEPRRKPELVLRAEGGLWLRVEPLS
Sequence of human CYP4A11 (Q02928 5-519): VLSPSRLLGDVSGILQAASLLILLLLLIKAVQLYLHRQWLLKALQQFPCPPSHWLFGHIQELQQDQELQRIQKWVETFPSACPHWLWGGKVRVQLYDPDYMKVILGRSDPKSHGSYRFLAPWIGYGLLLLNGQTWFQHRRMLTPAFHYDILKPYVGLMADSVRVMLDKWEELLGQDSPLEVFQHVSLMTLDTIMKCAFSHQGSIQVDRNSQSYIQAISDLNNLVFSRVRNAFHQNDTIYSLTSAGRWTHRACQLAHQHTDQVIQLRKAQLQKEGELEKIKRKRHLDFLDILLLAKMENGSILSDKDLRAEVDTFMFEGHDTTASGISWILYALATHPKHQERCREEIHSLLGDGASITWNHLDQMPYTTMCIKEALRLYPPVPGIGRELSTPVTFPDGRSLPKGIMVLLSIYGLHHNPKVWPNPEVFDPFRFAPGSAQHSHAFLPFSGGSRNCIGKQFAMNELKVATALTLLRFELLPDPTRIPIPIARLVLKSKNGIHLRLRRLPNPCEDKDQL

Structure (SMILES) | IC50 (human CYP4F2; [2]) [nM] | IC50 (human CYP4A11; [3]) [nM] | inhibitory activities against 20-HETE producing enzymes compared to compound A and compound B [1] | IC50 [1] [nM] | IC50 (human CYP4F2; [4]) [nM] | IC50 (human CYP4A11; [5]) [nM]
CC(=O)N1CCN(CCOc2ccc(-c3ccn[nH]3)cc2)CC1 [Compound A, reference compound] | 1000 | 11000 | – | 408 | – | –
CCOC(=O)N1CCN(CCOc2ccc(-c3ccn[nH]3)cn2)CC1 [Compound B, reference compound] | 36000 | > 50000 | – | 15600 | – | –
O=C(O)C12CC(CCCCCCOc3ccc(-c4ccn[nH]4)nc3)(C1)C2 [Example 1-53] | 330 | 61 | stronger inhibitory activities | 14 | – | –
O=C(O)C1CCc2ccc(COc3ccc(-c4ccn[nH]4)nc3)cc2C1 (stereo not drawn) [Example 1-56] | 170 | 27 | stronger inhibitory activities | 20 | – | –
CC(C)(COCCCCCCOc1ccc(-c2ccn[nH]2)nc1)C(=O)O [Example 1-57, 2,2-Dimethyl-3-[6-[[6-(1H-pyrazol-5-yl)-3-pyridinyl]oxy]hexoxy]propanoic Acid] | 340 | 110 | stronger inhibitory activities | 19 | – | –
O=C(O)C1COc2ccc(COc3ccc(-c4ccn[nH]4)nc3)cc2C1 (stereo not drawn) [Example 1-68] | 640 | 28 | stronger inhibitory activities | 26 | – | –
O=C(O)C1CCc2ccc(COc3ccc(-c4ccn[nH]4)nc3)cc2O1 (stereo not drawn) [Example 1-70] | 140 | 62 | stronger inhibitory activities | 37 | – | –
O=C(O)C1(CCCCCCCCOc2ccc(-c3ccn[nH]3)nc2)CCOCC1 [Example 3-1, 4-[8-[[6-(1H-Pyrazol-5-yl)-3-pyridinyl]oxy]octyl]-4-oxanecarboxylic Acid] | 24 | 190 | stronger inhibitory activities | 10 | – | –
CC(C)(OCCCCCCCOc1ccc(-c2cnco2)nc1)C(=O)O [Example 76-1, 2-Methyl-2-[7-[6-(1,3-oxazol-5-yl)pyridin-3-yl]oxyheptoxy]propanoic Acid] | – | – | – | – | 1500 | 740

Next, values leading:

IC50 (human CYP4F2; [2]) [nM] | IC50 (human CYP4A11; [3]) [nM] | inhibitory activities against 20-HETE producing enzymes compared to compound A and compound B [1] | IC50 [1] [nM] | IC50 (human CYP4F2; [4]) [nM] | IC50 (human CYP4A11; [5]) [nM] | Structure (SMILES)
890 | 23 | stronger inhibitory activities | 26 | – | – | O=C(O)C1CC1c1cccc(COc2ccc(-c3ccn[nH]3)nc2)c1 (single isomer, unassigned) [Example 26-2, trans-2-[3-[[6-(1H-Pyrazol-5-yl)-3-pyridinyl]oxymethyl]phenyl]-1-cyclopropanecarboxylic Acid (Optically Active Substance)]
1500 | 24 | stronger inhibitory activities | 30 | – | – | O=C(O)C1CC1c1cccc(COc2ccc(-c3ccn[nH]3)nc2)c1 (single isomer, unassigned) [Example 26-3, trans-2-[3-[[6-(1H-Pyrazol-5-yl)-3-pyridinyl]oxymethyl]phenyl]-1-cyclopropanecarboxylic Acid (Optically Active Substance, Enantiomer of Compound of Example 26-2)]
33 | 22 | stronger inhibitory activities | 8.2 | – | – | O=C(O)c1ccc2c(c1)CC(COc1ccc(-c3ccn[nH]3)nc1)CC2 (stereo not drawn) [Example 5-1, 7-[[6-(1H-Pyrazol-5-yl)-3-pyridinyl]oxymethyl]-5,6,7,8-tetrahydronaphthalene-2-carboxylic Acid]
– | – | – | – | 780 | 720 | CC(C)(COc1ccc(COc2ccc(-c3ccn[nH]3)nc2)cn1)C(=O)O [Example 75-5]
– | – | – | – | 1700 | 180 | CC(C)(COc1cccc(COc2ccc(-c3ccn[nH]3)nc2)n1)C(=O)O [Example 75-6]
